Results reported in US11337990B2, “Human milk oligosaccharides to promote growth of beneficial bacteria” (ABBOTT LABORATORIES, priority 2010, dated 2022).
“Also recorded” adds a separate entry of the source.

Legend:
HT-29 cells [1] = experiment: Alkaline phosphatase activity per milligram of protein (cell differentiation), HT-29; format: cell-based, human; settings: Example 48: LNnT or 2′FL 20, 200, 2000 mg/L; 6′SL 40, 400; 72 hours
Description: (§1) In a first experiment, HT-29 cells, which model the immature epithelial cells of the small intestine, are incubated in a humidified atmosphere of 5% carbon dioxide at 37° C. in the presence of LNnT or 2′FL at concentrations of 0 mg/L (“0”), 20 mg/L (“20”), 200 mg/L (“200”), and 2000 mg/L (“2000”) or in the presence of 6′SL at concentrations of 0 mg/mL (“0”), 40 mg/mL (“40”), 400 mg/mL (“400”), and 4000 mg/mL (“4000”) for 72 hours. The culture medium utilized is Dulbecco's Modified Eagle Medium (Life Technologies, Foster City Calif.) supplemented with 10% fetal calf serum and 2 mM glutamine. The controls (“energy”) consist of 91.5 mg lactose and 64.2 mg N-acetyllactosamine/L for LNnT; 133 mg lactose and 67 mg fucose/L for 2′FL; and 195 mg lactose and 205 mg/L sialic acid for 6′SL. The impact of the LNnT, 2′FL, and 6′SL at various levels and the controls on HT-29 cell proliferation is measured using a conventional BrdU assay, which measures the number of cells that have recently synthesized DNA. […] Additionally, the impact of LNnT, 2′FL, and 6′SL at various levels and the controls on the alkaline phosphatase activity per milligram of protein for HT-29 cells, which is an indicator of cell differentiation, is measured.

Caco-2 cells = experiment: Alkaline phosphatase activity per milligram of protein (cell differentiation), Caco-2; format: cell-based, human; settings: Example 48: LNnT or 2′FL 20, 200, 2000 mg/L; 6′SL 40, 400, 4000 mg/mL; 72 hours
Description: In a second experiment, Caco-2 cells, which model more mature epithelial cells of the small intestine, are incubated in a humidified atmosphere of 5% carbon dioxide at 37° C. in the presence of LNnT or 2′FL at concentrations of 0 mg/L (“0”), 20 mg/L (“20”), 200 mg/L (“200”), and 2000 mg/L (“2000”) or in the presence of 6′SL at concentrations of 0 mg/mL (“0”), 40 mg/mL (“40”), 400 mg/mL (“400”), and 4000 mg/mL (“4000”) for 72 hours. The culture medium utilized is Dulbecco's Modified Eagle Medium (Life Technologies, Foster City Calif.) supplemented with 10% fetal calf serum and 2 mM glutamine. The controls (“energy”) consist of 91.5 mg lactose and 64.2 mg N-acetyllactosamine/L for LNnT; 133 mg lactose and 67 mg fucose/L for 2′FL; and 195 mg lactose and 205 mg sialic acid/L for 6′SL. The impact of the LNnT, 2′FL, and 6′SL at various levels and the control on Caco-2 cell proliferation is measured using a conventional BrdU assay, which measures the number of cells that have recently synthesized DNA. […] Additionally, the impact of LNnT, 2′FL, and 6′SL at various levels and the controls on the alkaline phosphatase activity per milligram of protein for Caco-2 cells, which is an indication of cell differentiation, is measured.

HT-29 cells [2] = experiment: HT-29 cell proliferation, BrdU assay; format: cell-based, human; settings: Example 48: LNnT or 2′FL 20, 200, 2000 mg/L; 6′SL 40, 400; 72 hours; sodium salt
Description: In a first experiment, HT-29 cells, which model the immature epithelial cells of the small intestine, are incubated in a humidified atmosphere of 5% carbon dioxide at 37 C in the presence of LNnT at concentrations of 0 mg/L (“0”), 100 mg/L (“100”), 200 mg/L (“200”), and 400 mg/L (“400”) for either 48 hours or 72 hours. The culture medium utilized is Dulbecco's Modified Eagle Medium (Life Technologies, Foster City Calif.) supplemented with 10% fetal calf serum and 2 mM glutamine. The control consists of a combination of 91.5 mg lactose and 62.4 mg galactosamine (“LG”) per Liter of the Dulbecco's Modified Eagle Medium set forth above. The impact of the LNnT at various levels and the control on HT-29 cell proliferation is measured using a conventional BrdU assay, which measures the number of cells that have recently synthesized DNA.
as §1

Bifidobacterium spp. = experiment: qPCR of bacterial populations in in vitro fecal fermentation; format: cell-based; settings: overall, 0-12 h fermentation; sodium salt
B. infantis ATCC 15697 = experiment: Bacterial growth assay (OD600); format: cell-based, Bifidobacterium infantis; settings: 1% carbohydrate in sMRS+cysteine
Description: (§2) Coy Laboratory Products, Grass Lake, Mich.). Subsequently, the cultures are passed twice on a semi-synthetic MRS medium ([…] which is supplemented with 1% (w/v) filter-sterilized glucose as the sole carbohydrate source. […] For bifidobacteria strains, the same procedure is followed except all media are supplemented with 0.5 g/l L-cysteine/HCl. [table] After the 2nd pass in sMRS+glucose+cysteine, the cultures are washed once with 10 mL of sterile sMRS+cysteine (no carbohydrate), resuspended in 10 ml of sterile sMRS+cysteine (no carbohydrate) and then used as a 1% inoculum. The carbohydrates are sterilized with a 0.22 micron filter and used at a 1% final concentration. Cell growth is performed in 250 μL of sMRS+cysteine covered with 50 μL of mineral oil in a Bioscreen 100-well Honeycomb plate. […] The plate reader is operated in discontinuous mode, with absorbance readings performed in 30-minute intervals, and preceded by 30-second shaking intervals at maximum speed. Controls consist of inoculated medium lacking carbohydrate. […] All three plates include a positive control (glucose) and negative control (no carbohydrate). The OD600 data for each carbohydrate is corrected by subtracting the OD600 of the basal media (sMRS)+cysteine from the sample plate for each probiotic. Maximum OD is determined by inspection of the corrected growth data. OD is determined by subtracting the initial corrected OD (time point 0) from the maximum corrected OD. Samples are grown in biologically independent triplicates and the resulting growth kinetic data are expressed as the mean of these replicates. For the growth curve plots, OD600 vs. time is first plotted for the bacteria grown on medium lacking carbohydrate (sMRS). For all other carbohydrates, the OD600 data is corrected by subtracting the OD600 of sMRS.

B. infantis M-63 = experiment: Bacterial growth assay (OD600); format: cell-based, Bifidobacterium infantis; settings: 1% carbohydrate in sMRS+cysteine
Description: as §2

bifidobacteria strains = experiment: Bacterial growth assay (OD600), panel of 12 strains; format: cell-based, Bifidobacterium; settings: 1% carbohydrate in sMRS+cysteine
Description: as §2

infant fecal bacteria = experiment: In vitro substrate fermentation model with infant feces (pH, SCFA, lactate); format: cell-based, human infant
B. breve ATCC 15700 = experiment: Bacterial growth assay (OD600); format: cell-based, Bifidobacterium breve; settings: 1% carbohydrate in sMRS+cysteine
Description: Coy Laboratory Products, Grass Lake, Mich.). Subsequently, the cultures are passed twice on a semi-synthetic MRS medium ([…] which is supplemented with 1% (w/v) filter-sterilized glucose as the sole carbohydrate source. […] For bifidobacteria strains, the same procedure is followed except all media are supplemented with 0.5 g/l L-cysteine/HCl. […] After the 2nd pass in sMRS+glucose+cysteine, the cultures are washed once with 10 mL of sterile sMRS+cysteine (no carbohydrate), resuspended in 10 ml of sterile sMRS+cysteine (no carbohydrate) and then used as a 1% inoculum. The carbohydrates are sterilized with a 0.22 micron filter and used at a 1% final concentration. Cell growth is performed in 250 μL of sMRS+cysteine covered with 50 μL of mineral oil in a Bioscreen 100-well Honeycomb plate. […] The plate reader is operated in discontinuous mode, with absorbance readings performed in 30-minute intervals, and preceded by 30-second shaking intervals at maximum speed. Controls consist of inoculated medium lacking carbohydrate. […] Maximum OD is determined by inspection of the corrected growth data. OD is determined by subtracting the initial corrected OD (time point 0) from the maximum corrected OD. Samples are grown in biologically independent triplicates and the resulting growth kinetic data are expressed as the mean of these replicates. […]

With `CC(=O)N[C@H]1C([C@H](O)[C@H](O)CO)O[C@@](OCC2O[C@@H](O[C@@H]3C(CO)OC(O)C(O)[C@H]3O)C(O)[C@@H](O)[C@H]2O)(C(=O)[O-])C[C@H]1O.[Na+]` (stereo in doubt) [6′SL, α-(2-6′)-N-Acetylneuraminyl-lactose sodium salt] the “alkaline phosphatase activity per milligram of protein (cell differentiation)” value (HT-29 cells [1]) was “no apparent effect”, the “alkaline phosphatase activity per milligram of protein (cell differentiation)” value (Caco-2 cells) was “no apparent effect” and the HT-29 cell proliferation (HT-29 cells [2]) was “capable of reducing cell proliferation at higher doses; also recorded: inhibits intestinal cell proliferation in immature epithelial cells”. The bifidobacteria populations (Bifidobacterium spp.) was “may also be bifidogenic; also recorded: tended to generally increase bifidobacteria levels”, the “growth / ability to ferment (OD600)” value (B. infantis ATCC 15697) was “able to ferment” and the “growth / ability to ferment (OD600)” value (B. infantis M-63) was “able to ferment”. For the same compound, the “growth / ability to ferment (OD600)” value (bifidobacteria strains) was “only B. infantis ATCC 15697 and B. infantis M-63 are able to ferment”, the fermentation rate (infant fecal bacteria) was “about 1,809 μg/g of dry matter/hour” and the acetate production (infant fecal bacteria; 3 and 6 h) was “intermediate”. For the same compound, the “acetate production, formula fed versus breast fed infants” value (infant fecal bacteria; 12 h) was “greater”, the propionate production (infant fecal bacteria; 12 h of fermentation) was “large increase” and the “total SCFA production” value (infant fecal bacteria; 12 h of fermentation, sodium salt) was “greater (P<0.05); also recorded: substantial amounts of SCFA”. For the same compound, the “total SCFA production” value (infant fecal bacteria; after 3 and 6 h of fermentation) was “lower (P<0.05) with 6′SL compared to GOS”, the “total SCFA production, formula fed versus breast fed infants” value (infant fecal bacteria; after 6 and 12 h of fermentation) was “greater (P=0.01) fermentation by formula fed infants” and the propionate production (infant fecal bacteria; overall) was “greater (P<0.0001) propionate production than all other substrates”. The “fermentability by infant fecal bacteria” value (infant fecal bacteria; overall, sodium salt) was “highly fermentable; also recorded: readily fermented” and the lactate accumulation (infant fecal bacteria; up to 12 h, sodium salt) was “no lactate accumulation; also recorded: little lactate had accumulated”.
With `CC(=O)N[C@@H]1[C@@H](O)[C@H](O)[C@@H](CO)O[C@H]1O` [NAG, reference compound] the “growth / ability to ferment (OD600)” value (B. breve ATCC 15700) was “able to ferment” and the “growth / ability to ferment (OD600)” value (bifidobacteria strains) was “Only B. breve ATCC 15700 is able to ferment”.
With `C[C@H](O)[C@@H](O)[C@@H](O)[C@H](O)C=O` [L-fucose, reference compound] the “growth / ability to ferment (OD600)” value (B. infantis ATCC 15697) was “not able to ferment”, the “growth / ability to ferment (OD600)” value (B. infantis M-63) was “not able to ferment” and the “growth / ability to ferment (OD600)” value (bifidobacteria strains) was “None of the bifidobacteria are able to ferment”.
With `OC[C@H]1O[C@@H](O[C@H]2[C@H](O)[C@@H](O)C(O)O[C@@H]2CO)[C@H](O)[C@@H](O)[C@H]1O` (stereo partly drawn) [lactose] the “growth / ability to ferment (OD600)” value (bifidobacteria strains) was “the bifidobacteria, which is not able to ferment galactose, also has reduced growth on lactose”.
In the case of `O=C(CO)[C@@H](O)[C@H](O)[C@H](O)CO` [fructose], the “growth / ability to ferment (OD600)” value (bifidobacteria strains) is reported as “majority of bifidobacteria is able to ferment”.
For `CC(=O)N[C@H]1[C@H]([C@H](O)[C@H](O)CO)O[C@@](O[C@H]2[C@@H](O)[C@@H](CO)O[C@@H](O[C@H]3[C@H](O)[C@@H](O)C(O)O[C@@H]3CO)[C@@H]2O)(C(=O)O)C[C@@H]1O` (stereo partly drawn) [3′SL, 3′-Sialyllactose], the “growth / ability to ferment (OD600)” value (B. infantis ATCC 15697) was “able to ferment”, the “growth / ability to ferment (OD600)” value (B. infantis M-63) was “able to ferment” and the “growth / ability to ferment (OD600)” value (bifidobacteria strains) was “only B. infantis ATCC 15697 and B. infantis M-63 are able to ferment”.
